# Biological target: human Nav 1.8 (Homo sapiens, UniProt Q9Y5Y9)
# Experiment: E-VIPR assay detecting and measuring Nav inhibition properties
# Assay type: cell-based
# Settings: HEK cells expressing a truncated form of human Nav 1.8; compound numbers without "*" (not marked as run in the presence of human serum); read-out: measured IC50 value in the E-VIPR Assay
# Procedure, shortened: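 Nav inhibition was read by E-VIPR: cells were electrically stimulated while coumarin/oxonol FRET emissions were recorded. Cells were HEK expressing a truncated human Nav 1.8 and co-transduced with KIR2.1, and were assayed in 25% final human serum.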
# Sequence of human Nav 1.8 (Q9Y5Y9 126-399 limits assumed): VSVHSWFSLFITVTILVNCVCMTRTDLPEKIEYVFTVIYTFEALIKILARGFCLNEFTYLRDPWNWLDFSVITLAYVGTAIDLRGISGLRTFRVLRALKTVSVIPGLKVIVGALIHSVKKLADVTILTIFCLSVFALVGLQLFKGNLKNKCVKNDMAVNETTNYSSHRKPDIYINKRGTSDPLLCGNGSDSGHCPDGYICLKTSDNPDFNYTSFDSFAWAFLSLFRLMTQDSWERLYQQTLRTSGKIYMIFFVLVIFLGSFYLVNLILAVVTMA
# Sequence of human Nav 1.8 (Q9Y5Y9 660-890 limits assumed): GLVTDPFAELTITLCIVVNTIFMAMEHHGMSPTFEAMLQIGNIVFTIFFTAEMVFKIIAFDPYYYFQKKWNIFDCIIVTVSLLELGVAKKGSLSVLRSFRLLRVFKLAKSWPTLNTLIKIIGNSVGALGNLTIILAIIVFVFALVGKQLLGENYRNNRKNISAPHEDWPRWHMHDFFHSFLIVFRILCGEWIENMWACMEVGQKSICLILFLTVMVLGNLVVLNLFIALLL
# Sequence of human Nav 1.8 (Q9Y5Y9 1148-1722 limits assumed): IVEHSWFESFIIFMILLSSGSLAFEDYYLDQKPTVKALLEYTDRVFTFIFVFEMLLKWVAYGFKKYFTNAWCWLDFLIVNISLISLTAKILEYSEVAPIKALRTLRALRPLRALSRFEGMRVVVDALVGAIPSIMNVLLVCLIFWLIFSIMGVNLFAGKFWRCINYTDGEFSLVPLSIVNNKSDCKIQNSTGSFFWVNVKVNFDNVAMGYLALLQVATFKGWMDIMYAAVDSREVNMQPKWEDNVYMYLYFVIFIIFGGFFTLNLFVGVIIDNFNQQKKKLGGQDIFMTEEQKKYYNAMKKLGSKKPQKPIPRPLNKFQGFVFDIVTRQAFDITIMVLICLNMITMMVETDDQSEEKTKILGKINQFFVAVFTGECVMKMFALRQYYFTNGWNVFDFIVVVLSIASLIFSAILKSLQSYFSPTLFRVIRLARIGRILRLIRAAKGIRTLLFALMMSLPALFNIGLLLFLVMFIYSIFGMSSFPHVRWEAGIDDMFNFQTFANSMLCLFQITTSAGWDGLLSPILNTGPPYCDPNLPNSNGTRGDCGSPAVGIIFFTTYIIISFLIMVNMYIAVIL
row,Structure (SMILES),IC50 [nM]
1,"C[C@H]1[C@@H](c2ccc(F)c(F)c2OCCN[C@@H]2CCOC2)[C@H](C(=O)Nc2ccnc(C(N)=O)c2)O[C@@]1(C)C(F)(F)F [Compound 116, 4-((2R,3S,4S,5R)-3-(3,4-difluoro-2-(2-(((R)-tetrahydrofuran-3-yl)amino)ethoxy)phenyl)-4,5-dimethyl-5-(trifluoromethyl)tetrahydrofuran-2-carboxamido)picolinamide]",10 to 100
2,"C[C@H]1[C@@H](c2ccc(F)c(F)c2OCCN[C@H]2CCOC2)[C@H](C(=O)Nc2ccnc(C(N)=O)c2)O[C@@]1(C)C(F)(F)F [Compound 117, 4-((2R,3S,4S,5R)-3-(3,4-difluoro-2-(2-(((S)-tetrahydrofuran-3-yl)amino)ethoxy)phenyl)-4,5-dimethyl-5-(trifluoromethyl)tetrahydrofuran-2-carboxamido)picolinamide]",10 to 100
3,"C[C@H]1[C@@H](c2ccc(F)c(F)c2OCCNC2COC2)[C@H](C(=O)Nc2ccnc(C(N)=O)c2)O[C@@]1(C)C(F)(F)F [Compound 118, 4-((2R,3S,4S,5R)-3-(3,4-difluoro-2-(2-(oxetan-3-ylamino)ethoxy)phenyl)-4,5-dimethyl-5-(trifluoromethyl)tetrahydrofuran-2-carboxamido)picolinamide]",10 to 100
4,"C[C@H]1[C@@H](c2ccc(F)c(F)c2OCCN2CC(OC(F)F)C2)[C@H](C(=O)Nc2ccnc(C(N)=O)c2)O[C@@]1(C)C(F)(F)F [Compound 119, 4-((2R,3S,4S,5R)-3-(2-(2-(3-(difluoromethoxy)azetidin-1-yl)ethoxy)-3,4-difluorophenyl)-4,5-dimethyl-5-(trifluoromethyl)tetrahydrofuran-2-carboxamido)picolinamide]",< 10
5,"C[C@H]1[C@@H](c2ccc(F)c(F)c2OCCN2CC(C(F)F)C2)[C@H](C(=O)Nc2ccnc(C(N)=O)c2)O[C@@]1(C)C(F)(F)F [Compound 120, 4-((2R,3S,4S,5R)-3-(2-(2-(3-(difluoromethyl)azetidin-1-yl)ethoxy)-3,4-difluorophenyl)-4,5-dimethyl-5-(trifluoromethyl)tetrahydrofuran-2-carboxamido)picolinamide]",< 10
6,"C[C@H]1[C@@H](c2ccc(F)c(F)c2OCCN2CC(C)(F)C2)[C@H](C(=O)Nc2ccnc(C(N)=O)c2)O[C@@]1(C)C(F)(F)F [Compound 121, 4-((2R,3S,4S,5R)-3-(3,4-difluoro-2-(2-(3-fluoro-3-methylazetidin-1-yl)ethoxy)phenyl)-4,5-dimethyl-5-(trifluoromethyl)tetrahydrofuran-2-carboxamido)picolinamide]",< 10
7,"C[C@H]1[C@@H](c2ccc(F)c(F)c2OCCN2CC(C)(O)C2)[C@H](C(=O)Nc2ccnc(C(N)=O)c2)O[C@@]1(C)C(F)(F)F [Compound 122, 4-((2R,3S,4S,5R)-3-(3,4-difluoro-2-(2-(3-hydroxy-3-methylazetidin-1-yl)ethoxy)phenyl)-4,5-dimethyl-5-(trifluoromethyl)tetrahydrofuran-2-carboxamido)picolinamide]",10 to 100
8,"C[C@H]1[C@@H](c2ccc(F)c(F)c2OCCN2CC3(CCOC3)C2)[C@H](C(=O)Nc2ccnc(C(=O)N3CC4(CCOC4)C3)c2)O[C@@]1(C)C(F)(F)F [Compound 123, (2R,3S,4S,5R)-3-(2-(2-(6-oxa-2-azaspiro[3.4]octan-2-yl)ethoxy)-3,4-difluorophenyl)-N-(2-(6-oxa-2-azaspiro[3.4]octane-2-carbonyl)pyridin-4-yl)-4,5-dimethyl-5-(trifluoromethyl)tetrahydrofuran-2-carboxamide]",≥ 1000
9,"C[C@H]1[C@@H](c2ccc(F)c(F)c2OCCN2CC3CCC2CO3)[C@H](C(=O)Nc2ccnc(C(N)=O)c2)O[C@@]1(C)C(F)(F)F (stereo partly drawn) [Compound 124, 4-((2R,3S,4S,5R)-3-(2-(2-(2-oxa-5-azabicyclo[2.2.2]octan-5-yl)ethoxy)-3,4-difluorophenyl)-4,5-dimethyl-5-(trifluoromethyl)tetrahydrofuran-2-carboxamido)picolinamide]",< 10
10,"C[C@H]1[C@@H](c2ccc(F)c(F)c2OCCN2CCC23COC3)[C@H](C(=O)Nc2ccnc(C(N)=O)c2)O[C@@]1(C)C(F)(F)F [Compound 125, 4-((2R,3S,4S,5R)-3-(2-(2-(6-oxa-1-azaspiro[3.3]heptan-1-yl)ethoxy)-3,4-difluorophenyl)-4,5-dimethyl-5-(trifluoromethyl)tetrahydrofuran-2-carboxamido)picolinamide]",< 10
11,"C[C@H]1[C@@H](c2ccc(F)c(F)c2OCCN2CC3(CCOC3)C2)[C@H](C(=O)Nc2ccnc(C(N)=O)c2)O[C@@]1(C)C(F)(F)F [Compound 126, 4-((2R,3S,4S,5R)-3-(2-(2-(6-oxa-2-azaspiro[3.4]octan-2-yl)ethoxy)-3,4-difluorophenyl)-4,5-dimethyl-5-(trifluoromethyl)tetrahydrofuran-2-carboxamido)picolinamide]",10 to 100
12,"C[C@H]1[C@@H](c2ccc(F)c(F)c2OCCN2CCC3(COC3)C2)[C@H](C(=O)Nc2ccnc(C(N)=O)c2)O[C@@]1(C)C(F)(F)F [Compound 127, 4-((2R,3S,4S,5R)-3-(2-(2-(2-oxa-6-azaspiro[3.4]octan-6-yl)ethoxy)-3,4-difluorophenyl)-4,5-dimethyl-5-(trifluoromethyl)tetrahydrofuran-2-carboxamido)picolinamide]",< 10
13,"CO[C@@H]1CCN(CCOc2c([C@H]3[C@H](C(=O)Nc4ccnc(C(N)=O)c4)O[C@@](C)(C(F)(F)F)[C@H]3C)ccc(F)c2F)C1 [Compound 128, 4-((2R,3S,4S,5R)-3-(3,4-difluoro-2-(2-((R)-3-methoxypyrrolidin-1-yl)ethoxy)phenyl)-4,5-dimethyl-5-(trifluoromethyl)tetrahydrofuran-2-carboxamido)picolinamide]",10 to 100
14,"CO[C@H]1CCN(CCOc2c([C@H]3[C@H](C(=O)Nc4ccnc(C(N)=O)c4)O[C@@](C)(C(F)(F)F)[C@H]3C)ccc(F)c2F)C1 [Compound 129, 4-((2R,3S,4S,5R)-3-(3,4-difluoro-2-(2-((S)-3-methoxypyrrolidin-1-yl)ethoxy)phenyl)-4,5-dimethyl-5-(trifluoromethyl)tetrahydrofuran-2-carboxamido)picolinamide]",10 to 100
15,"C[C@H]1[C@@H](c2ccc(F)c(F)c2OCCN=S(C)(C)=O)[C@H](C(=O)Nc2ccnc(C(N)=O)c2)O[C@@]1(C)C(F)(F)F [Compound 130, 4-((2R,3S,4S,5R)-3-(2-(2-((dimethyl(oxo)-26-sulfaneylidene)amino)ethoxy)-3,4-difluorophenyl)-4,5-dimethyl-5-(trifluoromethyl)tetrahydrofuran-2-carboxamido)picolinamide]",< 10
16,"C[C@H]1[C@@H](c2ccc(F)c(F)c2OCCN2C3COCC2C3)[C@H](C(=O)Nc2ccnc(C(N)=O)c2)O[C@@]1(C)C(F)(F)F [Compound 131, 4-((2R,3S,4S,5R)-3-(2-(2-(3-oxa-6-azabicyclo[3.1.1]heptan-6-yl)ethoxy)-3,4-difluorophenyl)-4,5-dimethyl-5-(trifluoromethyl)tetrahydrofuran-2-carboxamido)picolinamide]",10 to 100
17,C=C(CO)COc1c([C@H]2[C@H](C(=O)Nc3ccnc(C(N)=O)c3)O[C@@](C)(C(F)(F)F)[C@H]2C)ccc(F)c1F [Compound 132],< 10
18,"C[C@H]1[C@@H](c2ccc(F)c(F)c2OCCCN2CC(F)C2)[C@H](C(=O)Nc2ccnc(C(N)=O)c2)O[C@@]1(C)C(F)(F)F [Compound 133, 4-((2R,3S,4S,5R)-3-(3,4-difluoro-2-(3-(3-fluoroazetidin-1-yl)propoxy)phenyl)-4,5-dimethyl-5-(trifluoromethyl)tetrahydrofuran-2-carboxamido)picolinamide]",< 10
19,"C[C@H]1[C@@H](c2ccc(F)c(F)c2OCCCN2CCC2)[C@H](C(=O)Nc2ccnc(C(N)=O)c2)O[C@@]1(C)C(F)(F)F [Compound 134, 4-((2R,3S,4S,5R)-3-(2-(3-(azetidin-1-yl)propoxy)-3,4-difluorophenyl)-4,5-dimethyl-5-(trifluoromethyl)tetrahydrofuran-2-carboxamido)picolinamide]",10 to 100
20,C=C(COC)COc1c([C@H]2[C@H](C(=O)Nc3ccnc(C(N)=O)c3)O[C@@](C)(C(F)(F)F)[C@H]2C)ccc(F)c1F [Compound 135],10 to 100
21,"CNC(=O)c1cc(NC(=O)[C@@H]2O[C@@](C)(C(F)(F)F)[C@@H](C)[C@H]2c2ccc(F)c(F)c2OCCN2CC3(COC3)C2)ccn1 [Compound 136, 4-((2R,3S,4S,5R)-3-(2-(2-(2-oxa-6-azaspiro[3.3]heptan-6-yl)ethoxy)-3,4-difluorophenyl)-4,5-dimethyl-5-(trifluoromethyl)tetrahydrofuran-2-carboxamido)-N-methylpicolinamide]",10 to 100
22,"C[C@@H](O)COc1c([C@H]2[C@H](C(=O)Nc3ccnc(C(N)=O)c3)O[C@@](C)(C(F)(F)F)[C@H]2C)ccc(F)c1F [Compound 152, 4-((2R,3S,4S,5R)-3-(3,4-difluoro-2-((R)-2-hydroxypropoxy)phenyl)-4,5-dimethyl-5-(trifluoromethyl)tetrahydrofuran-2-carboxamido) picolinamide]",10 to 100
23,C[C@H](O)COc1c([C@H]2[C@H](C(=O)Nc3ccnc(C(N)=O)c3)O[C@@](C)(C(F)(F)F)[C@H]2C)ccc(F)c1F [Compound 153],< 10
24,"COc1c(Cl)cc([C@H]2[C@H](C(=O)Nc3ccnc(C(N)=O)c3)O[C@@](C)(C(F)(F)F)[C@H]2C)c(OC)c1F [Compound 154, 4-((2R,3S,4S,5R)-3-(5-chloro-3-fluoro-2,4-dimethoxyphenyl)-4,5-dimethyl-5-(trifluoromethyl)tetrahydrofuran-2-carboxamido) picolinamide]",< 10
25,"COCC(CO)COc1c([C@H]2[C@H](C(=O)Nc3ccnc(C(N)=O)c3)O[C@@](C)(C(F)(F)F)[C@H]2C)ccc(F)c1F (stereo partly drawn) [Compound 155, 4-((2R,3S,4S,5R)-3-(3,4-difluoro-2-(3-hydroxy-2-(methoxymethyl)propoxy)phenyl)-4,5-dimethyl-5-(trifluoromethyl)tetrahydrofuran-2-carboxamido) picolinamide]",10 to 100

# From patent publication US20250213555A1, “SUBSTITUTED TETRAHYDROFURAN ANALOGS AS MODULATORS OF SODIUM CHANNELS” (VERTEX PHARMACEUTICALS INCORPORATED, priority 2021, published 2025)
